# Results from US4699928A, “Fluoroallylamine derivatives” (Merrell Dow Pharmaceuticals Inc., priority 1986, dated 1987).
# Experiments:
# MAO [1] = assay: Time-dependent kinetics and irreversibility of MAO inhibition, rat brain mitochondria, 14C p-tyramine; type: biochemical
# Method: (B) The compounds of Formula I can be tested to determine whether or not the MAO inhibition follows time-dependent kinetics by the procedure described below:
# Mitochondria are prepared from rat brain by homogenation in phosphate buffer (0.1 M, pH 7.2) followed by differential centrifugation. The mitochondria are suspended in the same buffer, the test compound is added at the desired concentration, and the system is incubated. At different time intervals, aliquots are taken and MAO activity is measured using ^14 C p-tyramine (a mixed substrate) as the substrate (See A. Christmas et al., supra).
# MAO [2] = assay: Inhibition of MAO ex vivo, p-tyramine as substrate; type: in vivo, male Sprague-Dawley rats; settings: 18 h, 14C p-tyramine
# Method: (§1) The ability of a compound of Formula I to inhibit MAO can be determined ex vivo by the following procedure:
# (§2) The test compound is administered orally (p.o.) to 300-350 g male Sprague-Dawley rats (Charles River, France) and the animals are killed 18 hours after treatment. The brain, heart, liver and/or duodenum is removed and either a crude homogenate or a mitochondrial fraction, described in Example 5, Part (A), is prepared. MAO activity is determined in the homogenates using ^14 C p-tyramine, as the substrate. Table III gives the results of the testing of (Z)-2-(2',4'-dichlorophenoxy)methyl-3-fluoroallylamine according to the above described procedure. Selectivity can be determined by repeating the above-described test using either ^14 C […] (for MAO-A) or ^14 C phenethylamine (for MAO-B) as the substrate for determining the percentage inhibition.
# MAO-B = assay: Inhibition of MAO ex vivo, phenethylamine as substrate (MAO-B); type: in vivo, male Sprague-Dawley rats; settings: for % Inhibition, Brain (2) / % Inhibition, Duodenum (2) / % Inhibition, Heart (2) / % Inhibition, Liver (2): 18 h, 14C phenethylamine
# Method: as §1, §2
# MAO-A = assay: Inhibition of MAO-A ex vivo; type: in vivo, male Sprague-Dawley rats; settings: p.o.; 1080 min
# Method: as §1, §2
# [3] = tested on: brain monoamines and their metabolites; assay: Inhibition of MAO in vivo: brain monoamines and their metabolites (HPLC); set-up: species or system male Sprague-Dawley rats; settings: for DOPAC, brain / HVA, brain / 5HIAA, brain / NE, brain / 5-HT, brain / DA (dopamine), brain: 18 h, ± S.E.M.; for DOPAC, brain: control 80 ± 3; for HVA, brain: control 81 ± 3; for 5HIAA, brain: control 347 ± 8; for NE, brain: control 369 ± 18; for 5-HT, brain: control 1156 ± 52; for DA (dopamine), brain: control 840 ± 27
# Method: (§3) The ability of a compound of Formula I to inhibit MAO can be determined in vivo using brain and heart samples obtained from the ex vivo study reported in Example 9. Monoamines and their deaminated metabolites were determined by HPLC with electrochemical detection by the method of J. Wagner et al, J. Neurochem. 38 1241-1254.
# (§4) When (Z)-2-(2',4'-dichlorophenoxy)methyl-3-fluoroallylamine is tested according to the above-described procedure, the results given in Tables IV and V are obtained. In these tables the following abbreviations are used: […]
# [4] = tested on: heart monoamines and their metabolites; assay: Inhibition of MAO in vivo: heart monoamines and their metabolites (HPLC); set-up: species or system male Sprague-Dawley rats; NE, Table V (heart) / DOPAC, Table V (heart) / 5HT, Table V (heart) / 5HIAA, Table V (heart): unit not given beside the values; settings: for 5HIAA, Table V (heart) / DOPAC, Table V (heart) / NE, Table V (heart) / HVA, Table V (heart) / 5HT, Table V (heart): 18 h; for 5HIAA, Table V (heart): control 7 ± 1; for DOPAC, Table V (heart): control 78 ± 22; for NE, Table V (heart): control 735 ± 100; for HVA, Table V (heart): control 38 ± 9; for 5HT, Table V (heart): control 808 ± 50
# Method: as §3, §4
structure (smiles),measurement,setting,value
"NC/C(=C/F)COc1ccc(Cl)cc1Cl [(z)-2-(2',4'-dichlorophenoxy)methyl-3-fluoroallylamine]",MAO inhibitory activity versus time of incubation,MAO [1]; 14C p-tyramine,increased as a function of time of incubation
same,irreversibility of MAO inhibition,MAO [1]; dialysis against phosphate buffer (24 hours),irreversible
same,initial rate of decrease of activity,MAO [1]; versus concentration of inhibitor,increased with increasing concentration of inhibitor
same,"% Inhibition, Brain (1)",MAO [2]; 1 mg/kg po,41%
same,"% Inhibition, Duodenum (1)",MAO [2]; 1 mg/kg po,10%
same,"% Inhibition, Heart (1)",MAO [2]; 1 mg/kg po,27%
same,"% Inhibition, Liver (1)",MAO [2]; 1 mg/kg po,0%
same,"% Inhibition, Brain (1)",MAO [2]; 2.5 mg/kg po,23%
same,"% Inhibition, Duodenum (1)",MAO [2]; 2.5 mg/kg po,26%
same,"% Inhibition, Heart (1)",MAO [2]; 2.5 mg/kg po,0%
same,"% Inhibition, Liver (1)",MAO [2]; 2.5 mg/kg po,9%
same,"% Inhibition, Brain (1)",MAO [2]; 5 mg/kg po,34%
same,"% Inhibition, Duodenum (1)",MAO [2]; 5 mg/kg po,55%
same,"% Inhibition, Heart (1)",MAO [2]; 5 mg/kg po,0%
same,"% Inhibition, Liver (1)",MAO [2]; 5 mg/kg po,21%
same,"% Inhibition, Brain (1)",MAO [2]; 10 mg/kg po,55%
same,"% Inhibition, Duodenum (1)",MAO [2]; 10 mg/kg po,57%
same,"% Inhibition, Heart (1)",MAO [2]; 10 mg/kg po,0%
same,"% Inhibition, Liver (1)",MAO [2]; 10 mg/kg po,25%
same,"% Inhibition, Brain (1)",MAO [2]; 25 mg/kg po,73%
same,"% Inhibition, Duodenum (1)",MAO [2]; 25 mg/kg po,65%
same,"% Inhibition, Heart (1)",MAO [2]; 25 mg/kg po,32%
same,"% Inhibition, Liver (1)",MAO [2]; 25 mg/kg po,55%
same,"% Inhibition, Brain (2)",MAO-B; 1 mg/kg po,85%
same,"% Inhibition, Duodenum (2)",MAO-B; 1 mg/kg po,73%
same,"% Inhibition, Heart (2)",MAO-B; 1 mg/kg po,40%
same,"% Inhibition, Liver (2)",MAO-B; 1 mg/kg po,57%
same,"% Inhibition, Brain (2)",MAO-B; 2.5 mg/kg po,90%
same,"% Inhibition, Duodenum (2)",MAO-B; 2.5 mg/kg po,82%
same,"% Inhibition, Heart (2)",MAO-B; 2.5 mg/kg po,31%
same,"% Inhibition, Liver (2)",MAO-B; 2.5 mg/kg po,67%
same,"% Inhibition, Brain (2)",MAO-B; 5 mg/kg po,93%
same,"% Inhibition, Duodenum (2)",MAO-B; 5 mg/kg po,95%
same,"% Inhibition, Heart (2)",MAO-B; 5 mg/kg po,40%
same,"% Inhibition, Liver (2)",MAO-B; 5 mg/kg po,89%
same,"% Inhibition, Brain (2)",MAO-B; 10 mg/kg po,96%
same,"% Inhibition, Duodenum (2)",MAO-B; 10 mg/kg po,96%
same,"% Inhibition, Heart (2)",MAO-B; 10 mg/kg po,40%
same,"% Inhibition, Liver (2)",MAO-B; 10 mg/kg po,90%
same,"% Inhibition, Brain (2)",MAO-B; 25 mg/kg po,98%
same,"% Inhibition, Duodenum (2)",MAO-B; 25 mg/kg po,98%
same,"% Inhibition, Heart (2)",MAO-B; 25 mg/kg po,64%
same,"% Inhibition, Liver (2)",MAO-B; 25 mg/kg po,95%
same,preferential inhibition of MAO-B in the four tissues,MAO-B; at the dose levels tested (1-25 mg/kg po),preferential inhibition of MAO-B
same,inhibition of brain MAO-B,MAO-B; doses as low as 1 mg/kg p.o.,greater than 80%
same,dose needed to inhibit MAO-A activity by more than 50%,MAO-A,greater than 5 mg/kg
same,"DOPAC, brain",[3]; 1 mg/kg p.o.,75 ± 11 ng/g
same,"HVA, brain",[3]; 1 mg/kg p.o.,94 ± 15 ng/g
same,"5HIAA, brain",[3]; 1 mg/kg p.o.,371 ± 19 ng/g
same,"NE, brain",[3]; 1 mg/kg p.o.,386 ± 18 ng/g
same,"5-HT, brain",[3]; 1 mg/kg p.o.,1218 ± 66 ng/g
same,"DA (dopamine), brain","[3]; 1 mg/kg p.o., p <0.05",945 ± 35 ng/g
same,"DOPAC, brain",[3]; 2.5 mg/kg p.o.,70 ± 6 ng/g
same,"HVA, brain",[3]; 2.5 mg/kg p.o.,75 ± 7 ng/g
same,"5HIAA, brain",[3]; 2.5 mg/kg p.o.,337 ± 15 ng/g
same,"NE, brain",[3]; 2.5 mg/kg p.o.,409 ± 4 ng/g
same,"DA (dopamine), brain",[3]; 2.5 mg/kg p.o.,896 ± 31 ng/g
same,"5-HT, brain",[3]; 2.5 mg/kg p.o.,1119 ± 64 ng/g
same,"HVA, brain",[3]; 5 mg/kg p.o.,83 ± 7.2 ng/g
same,"NE, brain",[3]; 5 mg/kg p.o.,415 ± 18 ng/g
same,"5-HT, brain",[3]; 5 mg/kg p.o.,1340 ± 116 ng/g
same,"DOPAC, brain","[3]; 5 mg/kg p.o., p <0.01",65 ± 3 ng/g
same,"DA (dopamine), brain","[3]; 5 mg/kg p.o., p <0.02",943 ± 21 ng/g
same,"5HIAA, brain","[3]; 5 mg/kg p.o., p <0.05",379 ± 10 ng/g
same,"5HIAA, brain",[3]; 10 mg/kg p.o.,343 ± 14 ng/g
same,"DA (dopamine), brain",[3]; 10 mg/kg p.o.,875 ± 16 ng/g
same,"5-HT, brain",[3]; 10 mg/kg p.o.,1297 ± 100 ng/g
same,"HVA, brain","[3]; 10 mg/kg p.o., p <0.02",53 ± 10 ng/g
same,"NE, brain","[3]; 10 mg/kg p.o., p <0.02",439 ± 15 ng/g
same,"5-HT, in words",[3]; 25 mg/kg dose,Significant increases
same,"HVA, brain",[3]; 25 mg/kg p.o.,75 ± 8 ng/g
same,"NE, brain","[3]; 25 mg/kg p.o., p <0.001",496 ± 12 ng/g
same,"DA (dopamine), brain","[3]; 25 mg/kg p.o., p <0.001",1087 ± 29 ng/g
same,"5-HT, brain","[3]; 25 mg/kg p.o., p <0.001",1623 ± 48 ng/g
same,"5HIAA, brain","[3]; 25 mg/kg p.o., p <0.005",404 ± 12 ng/g
same,"DOPAC, brain","[3]; 25 mg/kg p.o., p <0.01",54 ± 6 ng/g
same,"Norepinephrine (NE) concentrations, in words",[3]; 10 and 25 mg/kg dose,increased significantly
same,"dihydroxyphenylacetic acid in the brain, in words",[3]; following the 5 mg/kg dose,significant reductions
same,"dopamine in the brain, in words",[3]; following the 5 mg/kg dose,increases in dopamine
same,"selectivity of action, in words",[3]; lower doses (MAO-B) and higher doses (MAO-A),selectivity of action against MAO-B at the lower doses and a small degree of MAO-A inhibition occurring at the higher doses
same,"5HIAA, Table V (heart)",[4]; 1 mg/kg p.o.,16 ± 4
same,"DOPAC, Table V (heart)",[4]; 1 mg/kg p.o.,56 ± 11
same,"NE, Table V (heart)",[4]; 1 mg/kg p.o.,741 ± 56
same,"HVA, Table V (heart)","[4]; 1 mg/kg p.o., p <0.02",71 ± 6
same,"5HT, Table V (heart)","[4]; 1 mg/kg p.o., spread ± 79",1017
same,"5HIAA, Table V (heart)",[4]; 2.5 mg/kg p.o.,7 ± 1
same,"HVA, Table V (heart)",[4]; 2.5 mg/kg p.o.,53 ± 8
same,"DOPAC, Table V (heart)",[4]; 2.5 mg/kg p.o.,46 ± 12
same,"NE, Table V (heart)",[4]; 2.5 mg/kg p.o.,762 ± 20
same,"5HT, Table V (heart)","[4]; 2.5 mg/kg p.o., spread ± 108",995
same,"5HIAA, Table V (heart)",[4]; 5 mg/kg p.o.,20 ± 6
same,"HVA, Table V (heart)",[4]; 5 mg/kg p.o.,60 ± 16
same,"DOPAC, Table V (heart)",[4]; 5 mg/kg p.o.,56 ± 7
same,"NE, Table V (heart)",[4]; 5 mg/kg p.o.,875 ± 53
same,"5HT, Table V (heart)","[4]; 5 mg/kg p.o., spread ± 154",1018
same,"5HIAA, Table V (heart)",[4]; 10 mg/kg p.o.,14 ± 2
same,"HVA, Table V (heart)",[4]; 10 mg/kg p.o.,55 ± 3
same,"DOPAC, Table V (heart)",[4]; 10 mg/kg p.o.,62 ± 5
same,"NE, Table V (heart)",[4]; 10 mg/kg p.o.,729 ± 58
same,"5HT, Table V (heart)","[4]; 10 mg/kg p.o., spread ± 82",850
same,"DOPAC, Table V (heart)",[4]; 25 mg/kg p.o.,87 ± 27
same,"NE, Table V (heart)",[4]; 25 mg/kg p.o.,765 ± 50
same,"5HIAA, Table V (heart)","[4]; 25 mg/kg p.o., p <0.02",26 ± 4
same,"HVA, Table V (heart)","[4]; 25 mg/kg p.o., p <0.02",65 ± 4
same,"5HT, Table V (heart)","[4]; 25 mg/kg p.o., spread ± 113",685
same,"monoamines or their metabolites in the heart, in words",[4]; 1-25 mg/kg p.o.,no consistent changes
